Data reported in PubChem BioAssay AID1996.
In brackets after ≈: the same amount, converted by molar mass.

Conditions: buffer; pH 7.4; 200.0 µM
Compound O=C(O)C1CSC(c2ccc(O)c([N+](=O)[O-])c2)N1 (stereo not given) has a solubility kinetic of over 40.5 µg/mL.
Work on O=C(O)/C=C/C(=O)NCc1csc2ccccc12 yielded a solubility kinetic of 5.2 µg/mL (≈ 19.9 µM).
For CC(C)(C)c1ccc(OCC(=O)NCCN2CCOCC2)cc1.Cl, the solubility kinetic was 53 µg/mL.
Work on CCCc1cc(=O)[nH]c(SCC(=O)NCCC2=CCCCC2)n1 yielded a solubility kinetic of 48.2 µg/mL (≈ 144 µM).
NC(=O)CCC1NC(=S)N(Cc2ccccc2)C1=O (stereo not given) showed a solubility kinetic of 32.6 µg/mL (≈ 118 µM).
Compound CCOC(=O)c1cnc(SC)nc1N1CCCC1 has a solubility kinetic of over 40.1 µg/mL.
Compound CCOC(=O)Cc1ccc(NC(=O)c2ccc([N+](=O)[O-])cc2)cc1 has a solubility kinetic of 1 µg/mL (≈ 3.05 µM).
NC(=O)c1ccc(NC(=O)COC(=O)c2cc3c(s2)CCC3)cc1 showed a solubility kinetic of 8.6 µg/mL (≈ 25 µM).
C=C(C)C(=O)Oc1ccc(N2C(=O)[C@@H]3C4C=CC(C4)[C@@H]3C2=O)cc1 gave a solubility kinetic of 10.1 µg/mL (≈ 31.2 µM).
In the case of CCOC(=O)/C(C#N)=C\c1ccc(OC)c(OC)c1, the solubility kinetic is reported as 2.4 µg/mL (≈ 9.19 µM).
With O=C(c1ccco1)N1CCN(S(=O)(=O)c2cccc([N+](=O)[O-])c2)CC1 the solubility kinetic was over 54.8 µg/mL.
In the case of COc1ccc(C(=O)NCC(=O)N2CCc3ccccc3C2)cc1, the solubility kinetic is reported as over 48.7 µg/mL.
For Cc1sc2ncnc(N[C@@H](Cc3ccccc3)C(=O)O)c2c1C, the solubility kinetic was 46.8 µg/mL (≈ 143 µM).
In the case of Cc1ccc(Nc2ncnc(-n3cccc3)n2)cc1Cl, the solubility kinetic is reported as under 0.1 µg/mL.
For O=C(NC1CCC(O)CC1)c1ccc(-c2ccc(Cl)cc2)o1 (stereo not given), the solubility kinetic was 18.7 µg/mL (≈ 58.5 µM).
Compound O=C(COC(=O)c1ccc(F)cc1F)c1ccc[nH]1 has a solubility kinetic of over 39.8 µg/mL.
With CCCCC(=O)N/C(N)=N/c1nc2ccccc2o1 the solubility kinetic was 0.7 µg/mL (≈ 2.69 µM).
For Cc1cccc(C(=O)OCC(=O)NC23CC4CC(CC(C4)C2)C3)c1O, the solubility kinetic was 8.9 µg/mL (≈ 25.9 µM).
N#CC1(NC(=O)COc2ccc(C(N)=O)cc2)CCCC1 gave a solubility kinetic of over 43.1 µg/mL.
With O=S(=O)(/N=C(/Nc1nccs1)c1ccc(F)cc1)c1ccccc1 the solubility kinetic was 5 µg/mL (≈ 13.8 µM).
CC(=O)NCCc1nc2ccccc2n1CCOc1ccccc1C gave a solubility kinetic of over 50.6 µg/mL.
CCOC(=O)Cn1nc(C)c([N+](=O)[O-])c1C gave a solubility kinetic of over 34.1 µg/mL.
With CCN1CCN(CCC(=O)Nc2ccccc2C)CC1 the solubility kinetic was over 41.3 µg/mL.
Compound Cc1ccc(S(=O)(=O)c2c[nH]c3ccc(C)cc3c2=O)cc1 has a solubility kinetic of under 0.7 µg/mL.
O=C(O)c1cc(-c2cccs2)nc2ccc(Br)cc12 showed a solubility kinetic of over 50.1 µg/mL.
Work on CCC1(c2ccccc2)NC(=O)N(CC(=O)N2CCc3ccccc32)C1=O (stereo not given) yielded a solubility kinetic of 6.8 µg/mL (≈ 18.7 µM).
With COc1cc(NS(=O)(=O)c2ccc(NC(=S)NC(C)=O)cc2)nc(OC)n1 the solubility kinetic was over 61.7 µg/mL.
Compound O=C(COc1cccc(Cl)c1Cl)NC1CC1 has a solubility kinetic of over 39 µg/mL.
For Cc1ccc(-c2nc(C(=O)O)cs2)cc1, the solubility kinetic was 29.5 µg/mL (≈ 135 µM).
With CC(=O)Cn1c(=O)oc2ccccc21 the solubility kinetic was 27.1 µg/mL (≈ 142 µM).
For CCOc1c(C)cc(S(=O)(=O)NCc2ccccn2)c(C)c1C, the solubility kinetic was over 50.2 µg/mL.
In the case of CN1C2CCC1CC(NC(=O)c1ccc([N+](=O)[O-])cc1)C2 (stereo not given), the solubility kinetic is reported as over 43.4 µg/mL.
Work on Cc1cccc2c1N(CCOc1ccccc1)C(=O)C2=O yielded a solubility kinetic of 3.4 µg/mL (≈ 12.1 µM).
With C[C@H](NC(=O)c1ccc(C(C)(C)C)cc1)C(=O)N1CCOCC1 the solubility kinetic was over 47.8 µg/mL.
With COc1ccc(S(=O)(=O)N2CCc3ccccc32)cc1C(=O)NCC(c1ccco1)N1CCCC1 (stereo not given) the solubility kinetic was 20.1 µg/mL (≈ 40.6 µM).
For COc1ccc(S(=O)(=O)NCc2cccnc2)c2ccccc12, the solubility kinetic was 37.2 µg/mL (≈ 113 µM).
CCCCCCCn1ccc(O)c(CC(=O)OC)c1=O gave a solubility kinetic of over 42.2 µg/mL.
For Cc1oc(-c2cc(F)cc(F)c2)nc1CN1CCSCC1, the solubility kinetic was 26.3 µg/mL (≈ 84.7 µM).
For Cc1cc(OCC(O)CN2CCCC2)ccc1C(C)C.Cl (stereo not given), the solubility kinetic was 39.1 µg/mL.
Compound COC(=O)c1ccc2c(=O)n(-c3ccccc3F)c(=S)[nH]c2c1 has a solubility kinetic of 1 µg/mL (≈ 3.03 µM).
With COCCSc1ccccc1C(=O)Nc1ccc(Cl)cc1 the solubility kinetic was 44.1 µg/mL (≈ 137 µM).
CSc1nc(C)c(Cc2c(F)cccc2Cl)c(=O)[nH]1 showed a solubility kinetic of 1 µg/mL (≈ 3.35 µM).
O=C(Nc1ccccc1)c1ccccc1NC(=O)c1ccccc1C(=O)O showed a solubility kinetic of 52.6 µg/mL (≈ 146 µM).
Work on NC(=O)c1ccsc1NC(=O)COC(=O)CCOc1ccccc1 yielded a solubility kinetic of 16.9 µg/mL (≈ 48.5 µM).
With CCCCCc1ccc(S(=O)(=O)Nc2cc(C)ccn2)cc1 the solubility kinetic was under 0.3 µg/mL.
CC(=O)Nc1ccccc1OCC(=O)NCCC1=CCCCC1 showed a solubility kinetic of over 47.5 µg/mL.
O=C(Nc1cccc([N+](=O)[O-])c1)Nc1cccs1 gave a solubility kinetic of 32.3 µg/mL (≈ 123 µM).
For C#CCNC(=O)c1cc2sccc2n1C, the solubility kinetic was 30.6 µg/mL (≈ 140 µM).
In the case of COc1ccc(C(=O)NC(=O)COC(=O)c2ccc(C)o2)cc1, the solubility kinetic is reported as 7 µg/mL (≈ 22.1 µM).
Work on CC(C)Cc1ccc(C(C)C(N)=Nc2ccc(O)cc2)cc1.Cl (stereo not given) yielded a solubility kinetic of over 49.9 µg/mL.
Compound O=C1NC(=O)N(c2ccccc2)C(=O)/C1=C\c1ccccc1[N+](=O)[O-] has a solubility kinetic of over 50.6 µg/mL.
In the case of CC(C)CNC(=O)c1cccc2c1-c1ccccc1C2=O, the solubility kinetic is reported as 2.5 µg/mL (≈ 8.95 µM).
With C1=C(c2ccccc2)CCNC1.Cl the solubility kinetic was 24.9 µg/mL.
Work on COc1ccc(F)cc1S(=O)(=O)n1cnc2ccccc21 yielded a solubility kinetic of 28.3 µg/mL (≈ 92.4 µM).
In the case of CCOC(=O)c1cccc(NC(=O)c2ccc3c(c2)OCO3)c1, the solubility kinetic is reported as 2.7 µg/mL (≈ 8.62 µM).
In the case of Cc1c(C(=O)c2ccc(F)cc2F)c2ccccn2c1CCC#N, the solubility kinetic is reported as 44.4 µg/mL (≈ 137 µM).
In the case of O=C(CSc1nc2ccccc2s1)NCC1CCCO1 (stereo not given), the solubility kinetic is reported as over 46.3 µg/mL.
Compound COc1cc2c(cc1OC)CC1(CCCCC1)N=C2.Cl has a solubility kinetic of over 44.4 µg/mL.
CN(CC(=O)Nc1ccc(F)cc1)C(=O)CSc1nnc(Cc2ccccc2)o1 gave a solubility kinetic of over 62.2 µg/mL.
With CN(CC(=O)N1CCN(Cc2ccccc2)CC1)C(=O)Cc1ccc(Cl)c(Cl)c1 the solubility kinetic was 61.7 µg/mL (≈ 142 µM).
In the case of Cc1ccc(CNC(=O)COC(=O)c2cccnc2Cl)cc1, the solubility kinetic is reported as 23.7 µg/mL (≈ 74.4 µM).
For CCC(=O)OCC(=O)Nc1cc(S(=O)(=O)N(C)C)ccc1Cl, the solubility kinetic was 46 µg/mL (≈ 132 µM).
CC(C)NCC(=O)C12CC3CC(CC(C3)C1)C2 gave a solubility kinetic of 28.7 µg/mL (≈ 122 µM).
COc1ccc(S(=O)(=O)N2CCN(C(=O)C3CCCCC3)CC2)cc1 gave a solubility kinetic of 53.7 µg/mL (≈ 147 µM).
Compound Cc1ccc(Cl)cc1NC(=O)NCCN1CCCCC1 has a solubility kinetic of over 44.4 µg/mL.
CCOC(=O)C1CCN(S(=O)(=O)c2c(C)noc2C)CC1 showed a solubility kinetic of 26.8 µg/mL (≈ 84.7 µM).
Work on CCOc1ccc(C2C([N+](=O)[O-])=C(C)N(C)C(=O)N2C)cc1OC (stereo not given) yielded a solubility kinetic of over 50.3 µg/mL.
Work on COc1ccc(NS(=O)(=O)c2cn(C)nc2C)cc1 yielded a solubility kinetic of over 42.2 µg/mL.
Work on CC(=O)OCC[N+](C)(C)C.[Cl-] yielded a solubility kinetic of over 27.2 µg/mL.
CCCn1c2ccccc2c2cnn(CC(=O)NCCOC)c(=O)c21 showed a solubility kinetic of over 51.4 µg/mL.
In the case of COc1ccc2cc(S(=O)(=O)N3CCCC(C)C3)ccc2c1 (stereo not given), the solubility kinetic is reported as under 0.7 µg/mL.
NC(=O)c1ccc[n+](CC(=O)c2ccc(Br)cc2)c1.[Br-] gave a solubility kinetic of over 60 µg/mL.
Work on NC(=O)C(c1ccccc1)c1ccc(C(=O)c2ccccc2)cc1 (stereo not given) yielded a solubility kinetic of under 0.7 µg/mL.
With FC(F)(F)c1cccnc1Oc1ccc(C2=NCCS2)cc1 the solubility kinetic was 0.6 µg/mL (≈ 1.85 µM).
For COc1nc(C)nc(NC(=O)NS(=O)(=O)c2ccccc2Cl)n1, the solubility kinetic was over 53.7 µg/mL.
Work on C=CCNc1nnc(Sc2ncccc2[N+](=O)[O-])s1 yielded a solubility kinetic of over 44.3 µg/mL.
Work on O=C1NC(N2CCOCC2)=N/C1=C/c1ccc2c(c1)OCO2 yielded a solubility kinetic of over 45.2 µg/mL.
Compound NS(=O)(=O)c1ccc(CNC(=O)Cc2ccccc2F)cc1 has a solubility kinetic of over 48.4 µg/mL.
Cc1ccc(C)c(NC(=O)C2CC3CCC2C3)c1 (stereo not given) gave a solubility kinetic of 10.6 µg/mL (≈ 43.6 µM).
O=C(COC(=O)Cc1ccc(S(=O)(=O)N2CCOCC2)s1)Nc1ccc(F)cc1F gave a solubility kinetic of over 69.1 µg/mL.
Cc1ccccc1OCC(O)CNC1CCCC1.Cl (stereo not given) gave a solubility kinetic of 38.2 µg/mL.
COc1ccc(NCc2cc(=O)[nH]c3ccccc23)cc1 gave a solubility kinetic of 8 µg/mL (≈ 28.5 µM).
OC(C#CCN1CCCCC1)(c1ccccc1)c1ccccc1 gave a solubility kinetic of 13 µg/mL (≈ 42.6 µM).
[O-][N+]1=c2ccc(Nc3ccccc3)cc2=NC12CCCCC2 showed a solubility kinetic of under 0.2 µg/mL.
Work on Cn1c(-c2cccc(Br)c2)cnc1NCc1ccccc1O yielded a solubility kinetic of 6.3 µg/mL (≈ 17.6 µM).
